Assays:
[1] = system: arachidonic acid induced platelet aggregation; assay: Inhibition of arachidonic acid induced platelet aggregation in platelet-rich plasma; assay type: cell-based; settings: arachidonic acid 800 μM, human PRP
Procedure: Venous blood is collected from the antecubital vein of human volunteers who are drug free for at least one week. The blood is collected by gravity into plastic transfer bags containing 0.38% sodium citrate as the anticoagulant. Platelet-rich plasma (PRP) is prepared by centrifuging the citrated blood at 200×g for 10 min at 25° C. Platelet-poor plasma (PPP) is obtained by centrifuging the PRP at 2500×g for 30 min at 25° C. Platelet aggregation is studied photometrically (Boron, Nature 194:927-929,1962) using a Chronolog aggregometer connected to a linear recorder. The test compound is dissolved in methanol and preincubated with PRP for 2.5 minutes at 37° C. Arachidonic acid (800 μM) dissolved in 0.1 M Tris-HCl buffer, pH 8.5, is then added and the optical transmission recorded for at least 3 minutes. The rate of increase in optical transmission, which is a measure of the initial velocity of aggregation, is measured by determining the slope of the steepest part of the curve.

[2] = system: arachidonic acid-induced bronchoconstriction; assay: Inhibition of arachidonic acid-induced bronchoconstriction in the anesthetized guinea pig; assay type: in vivo
Procedure: (§1) Male guinea pigs weighing 480-520 g are anesthetized with urethane (1.5 g/kg, i.p.). Spontaneous respiration is arrested with succinylchloline chloride (1.5 mg/kg, i.p.). The guinea pigs are artificially ventilated with a Palmer respiration pump through a tracheal cannula at a rate of 72 strokes/min and a stroke volume of 3 ml.
(§2) Pulmonary resistance and dynamic compliance are determined by the method described by Amdur and Mead, "Mechanics of Respiration in Unanesthetized Guinea Pigs", Amer. J. Physiol. 192, 364-368, as modified by Giles et al. (1973), "The Bronchodilator and Cardiac Stimulant Effects of Th 1165A, Salbutamol, and Isoproterenol", J. Pharmacol. Exp. Ther. 186, 472-481. Respiratory flow is measured with a Fleisch pneumotachograph (No. 000) and a Validyne (MP 45) differential pressure transducer. Transpulmonary pressure is determined by monitoring the difference between pressure in the external end of a tracheal cannula and the pressure in the pleural cavity by means of a Validyne MP 45 differential pressure transducer. The flow and pressure signals are fed into an on-line analog Pulmonary Mechanics Computer (Buxco Electronics, Inc.) which provides calculation of pulmonary resistance and dynamic compliance. The computer output of flow, pressure, volume, resistance and dynamic compliance are recorded on a Brush 260 recorder. Blood pressure is measured from a carotid artery with a Statham P23Db transducer and heart rate is derived from the pulse pressure. Both blood pressure and heart rate are recorded with the Buxco pulmonary mechanics computer. All parameters are digitalized by a Data Logger, Model DL-12 Buxco electronics and recorded on a Texas Instrument silent 700 ASR printer.
Arachidonic acid (AA) (0.25 mg/kg i.v.) is administered to groups of 4-5 guinea pigs 15 minutes before and 3 and 10 minutes after the administration of the test compound (0.1, 0.3 and 1.0 mg/kg i.v.). The administration of AA causes substantial increases in pulmonary resistance (R) and decrease in dynamic compliance (C) of 70% and 50% respectively. […] The inhibitory effect of the test compound lasts for less than 10 minutes.

[3] = system: histamine-induced bronchoconstriction; assay: Specificity test: histamine-induced bronchoconstriction in the anesthetized guinea pig; assay type: in vivo; settings: 1.0 mg/kg i.v.; histamine 5.0 μg/kg i.v.
Procedure: as §1
as §2, with “The flow and pressure signals are fed into an on-line analog Pulmonary Mechanics Computer (Buxco Electronics, Inc.) which provides calculation of pulmonary resistance and dynamic compliance.” left out, “All parameters are digitalized by a Data Logger, Model DL-12 Buxco electronics and recorded on a Texas Instrument silent 700 ASR printer.” left out

Thromboxane synthetase [4] = biological target: T1, Thromboxane synthetase (Homo sapiens, UniProt P24557); assay: Inhibition of thromboxane synthetase (platelet membrane preparation, 14C-arachidonic acid to thromboxane-B2); assay type: biochemical
T1 construct: from tissue; host or cells: blood platelets from fresh platelet-rich plasma (PRP), lysed membrane suspension
T1 sequence (P24557 1-533): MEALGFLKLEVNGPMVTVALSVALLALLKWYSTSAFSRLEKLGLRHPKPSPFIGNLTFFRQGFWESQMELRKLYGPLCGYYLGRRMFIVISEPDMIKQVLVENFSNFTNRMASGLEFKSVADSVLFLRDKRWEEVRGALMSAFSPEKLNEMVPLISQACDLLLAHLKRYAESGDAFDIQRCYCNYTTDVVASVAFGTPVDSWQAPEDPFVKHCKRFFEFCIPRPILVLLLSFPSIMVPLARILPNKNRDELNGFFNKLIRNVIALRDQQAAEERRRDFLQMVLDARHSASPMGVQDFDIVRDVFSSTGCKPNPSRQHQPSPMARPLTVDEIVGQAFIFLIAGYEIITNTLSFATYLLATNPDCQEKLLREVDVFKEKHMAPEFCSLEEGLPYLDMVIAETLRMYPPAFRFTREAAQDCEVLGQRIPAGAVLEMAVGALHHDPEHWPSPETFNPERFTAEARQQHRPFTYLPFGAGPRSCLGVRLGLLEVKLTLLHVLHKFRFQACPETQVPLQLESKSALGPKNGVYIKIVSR
Procedure: Thromboxane synthetase is prepared from fresh PRP according to the procedure of Nijkamp et al, supra. Briefly, a platelet pellet is washed in physiological saline, and the platelets lysed by a combination of freeze-thaw cycles and homogenizations. This platelet membrane suspension is divided into small aliquots and stored at -70° C. until used. Thromboxane synthetase activity is determined by incubating the platelet preparation with ^14 C-arachidonic acid in a reaction mixture containing epinephrine, reduced glutathione, and Tris-HCl buffer, pH 7.5. Thromboxane synthetase activity is determined in the presence of the test compound dissolved in methanol, or of the methanol control. The reaction is carried out for 3-5 minutes at 37° C. and stopped by the addition of 2N HCl. In some instances, aliquots of the reaction mixtures are spotted directly on Quantum thin layer plates for thin layer chromatography of reaction mixture components. In other experiments, the lipids in the reaction mixture are extracted into ethyl acetate. After the ethyl acetate is taken to dryness, the lipid residue is dissolved in ethanol and aliquots spotted on the thin layer plates. In either instance, the plates are developed using chloroform:methanol:acetic acid (90:5:5) as solvent system. […] The radioactivity that migrates in the area of thromboxane-B2 is then determined by liquid scintillation spectrometry.

thromboxane synthetase [5] = settings: cited from earlier work

Structure (SMILES)	IC50 ([1]; read-out: I50 (concentration to achieve 50% inhibition) of platelet aggregation) [µM]	inhibition at 1000 µM ([1]; screening concentration 1 mM, read-out: effectiveness in inhibiting platelet aggregation) [%]	duration of hypertension ([2]; 0.1, 0.3 and 1.0 mg/kg i.v.)	effect of compound alone on R, C or heart rate ([2]; 0.1, 0.3 and 1.0 mg/kg i.v.)	effect on blood pressure ([2]; 0.1, 0.3 and 1.0 mg/kg i.v.)	duration of inhibitory effect on AA-induced changes ([2]; 0.1-1.0 mg/kg i.v.)	effect on AA-induced changes in pulmonary resistance (R) and dynamic compliance (C) ([2]; 0.1-1.0 mg/kg i.v. given before AA 0.25 mg/kg i.v.)	effect on histamine-induced increases in R and decreases in C [3]	inhibition at 1000 µM (Thromboxane synthetase [4]; at 1000 μM) [%]	IC50 (Thromboxane synthetase [4]; read-out: I50 thromboxane synthetase) [µM]	inhibition of thromboxane synthetase (literature) (thromboxane synthetase [5])
C(=Cc1ccccc1)Cn1ccnc1.Cl [test compound, 1-(3-phenyl-2-propenyl)-1H-imidazole, hydrochloride (1:1)]	30	100	up to 30 minutes	does not significantly alter	profound hypertension of long duration	less than 10 minutes	significant dose dependent decrease	not altered	83	30	
c1c[nH]cn1 [imidazole]											specific inhibitor

Source: patent US4243671A, “Inhibition of thromboxane synthetase formation and arachidonic acid-induced platelet aggregation and bronchoconstriction” (E. R. Squibb & Sons, Inc., priority 1979, dated 1981)
